Test results reported in paper PMC3699521, “ZrFsy1, a High-Affinity Fructose/H^+ Symporter from Fructophilic Yeast Zygosaccharomyces rouxii” (PLoS ONE, 2013).

Target: T1, ZrFsy1 (Zygosaccharomyces rouxii, UniProt C5DSI4)
T1 construct: gene ZYRO0C00374g; full length, 564 residues, C-terminal GFP tag, multicopy plasmid pZRS1-S (own promoter), expressed in S. cerevisiae hxt-null EBY.VW4000
T1 sequence (C5DSI4 1-564): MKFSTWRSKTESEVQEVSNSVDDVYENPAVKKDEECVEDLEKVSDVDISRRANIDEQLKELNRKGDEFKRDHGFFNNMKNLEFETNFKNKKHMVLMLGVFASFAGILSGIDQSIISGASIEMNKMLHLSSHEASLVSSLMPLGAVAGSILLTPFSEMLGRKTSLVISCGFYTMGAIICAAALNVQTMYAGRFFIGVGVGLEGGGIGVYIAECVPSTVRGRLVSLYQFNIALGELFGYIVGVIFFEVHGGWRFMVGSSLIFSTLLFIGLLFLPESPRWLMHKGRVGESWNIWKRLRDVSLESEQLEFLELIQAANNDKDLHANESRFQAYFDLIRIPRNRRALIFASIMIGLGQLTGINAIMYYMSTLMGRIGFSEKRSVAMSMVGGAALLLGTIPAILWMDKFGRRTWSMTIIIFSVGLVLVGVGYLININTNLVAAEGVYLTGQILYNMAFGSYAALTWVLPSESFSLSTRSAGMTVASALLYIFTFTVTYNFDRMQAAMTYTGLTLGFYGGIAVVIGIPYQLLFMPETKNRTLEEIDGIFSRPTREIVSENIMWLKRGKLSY
Test: inhibition of [U-14C]fructose uptake; extracellular alkalinisation on sorbose pulse
Type: cell-based
Details: competitor of labelled fructose; 10 mM sorbose, 25 °C, pH 5 in the proton symport assay; D / L form not stated

## OCC1(O)OC[C@H](O)[C@@H](O)[C@@H]1O (stereo partly shown) [sorbose]
  inhibition of [U-14C]fructose uptake; extracellular alkalinisation on sorbose pu: transport of radioactive fructose by ZrFsy1 was inhibited by sorbose but not by glucose
